Among the data in PubChem BioAssay AID2842 (Southern Research Institute, 2010) are IC90 values, retold here.

≈ marks a conversion by molar mass, not a printed value.

The subject of this experiment is M. tuberculosis H37Rv growth inhibition. In words: Mycobacterium tuberculosis H37Rv growth inhibition, putative kinase inhibitor library, confirmatory dose response (AID 2842).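 Also: bacteria incubated one week before Alamar blue readout.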

By IC90 is commonly meant the concentration needed for an effect of 90%. Take `COc1cccc(C(=O)N(CCCn2ccnc2)c2nc3ccc(C)cc3s2)c1OC`: the IC90 is 2.63 µg/mL (≈ 6.02 µM). Under `COc1ccc(C)c2sc(N3CCc4ccccc4C3)nc12` stands 11.1 µg/mL (≈ 35.6 µM); under `CCOC(=O)N1CCN(c2ncnc3c2cnn3-c2ccc(C)c(Cl)c2)CC1`, 12.2 µg/mL (≈ 30.5 µM).

As for `O=C(NNc1nc2c(Cl)cccc2s1)c1coc2ccccc2c1=O`, the IC90 was 11.1 µg/mL (≈ 29.9 µM).

For `CCOC(=O)c1ccc2nc(Nc3nc4cc5c(cc4s3)OCO5)sc2c1`, the IC90 is 34.8 µg/mL (≈ 87.2 µM). The value for `CC(C)(C)c1ccc(C(=O)Nc2nnc(-c3ccco3)o2)cc1` was 1.18 µg/mL (≈ 3.79 µM); that for `Cc1ccc(N=C2NC(=O)C(Cc3ccccc3Cl)S2)cc1` (stereo not given) was 25.4 µg/mL (≈ 76.9 µM); that for `Cc1ccc(-c2nnc(NC(=O)CCSc3ccccc3)o2)c(C)c1` was 15.1 µg/mL (≈ 42.7 µM). In the case of `O=C(Nc1nnc(-c2ccc(Cl)s2)o1)c1nc2ccccc2s1`, the IC90 was 4.81 µg/mL (≈ 13.3 µM). In the case of `Cc1ccc(-c2nnc(NC(=O)c3cccc(Oc4ccccc4)c3)o2)c(C)c1`, the IC90 is 25.3 µg/mL (≈ 65.5 µM). The value for `Cc1ccccc1C(=O)Nc1nnc(-c2cc(Cl)ccc2Cl)o1` was 1.27 µg/mL (≈ 3.65 µM); that for `CCCCc1ccc2[nH]cc(C(=O)O)c(=O)c2c1` was 14.5 µg/mL (≈ 59 µM). The value for `Cc1ccc(-c2nnc3c4cc5c(cc4n(Cc4cccc(C)c4)cc2-3)OCCO5)cc1` was 5.76 µg/mL (≈ 13.7 µM); that for `Cc1ccc(CC(=O)N(CCCn2ccnc2)c2nc3ccccc3s2)c(C)c1` was 4.82 µg/mL (≈ 11.9 µM).

Take `O=C1Nc2ccccc2/C1=C/C(=O)c1ccc([N+](=O)[O-])cc1`: the IC90 was 47.7 µg/mL (≈ 162 µM). The value for `COc1ccccc1Cn1cc2c(-c3ccc(C)cc3)nnc-2c2cc(C)ccc21` was 3.48 µg/mL (≈ 8.84 µM); that for `O=C1N/C(=N/N=C/c2ccccc2O)SC1Cc1ccc(Cl)cc1Cl` (stereo not given) was 1.32 µg/mL (≈ 3.35 µM); that for `Cc1ccc(-c2csc(Nc3nc4cc5c(cc4s3)OCO5)n2)o1` was 26.6 µg/mL (≈ 74.5 µM). Under `O=C(Nc1nnc(-c2ccc(Br)cc2)o1)c1ccc(S(=O)(=O)N2CCCCCC2)cc1` stands 16 µg/mL (≈ 31.7 µM); under `O=C(c1ccc(NC2=C(Cl)C(=O)N(Cc3ccccc3)C2=O)cc1)N1CCCCCC1`, 11.2 µg/mL (≈ 25.5 µM); under `CCCCOc1cccc(C(=O)Nc2nnc(-c3cc(Cl)ccc3Cl)o2)c1`, 12.9 µg/mL (≈ 31.8 µM). Under `COc1cccc(-c2csc(NC(=O)C3CCCCC3)n2)c1` stands 19.8 µg/mL (≈ 62.6 µM); under `O=C(Nc1nc(-c2ccc3c(c2)OCCO3)cs1)c1cccc(C(F)(F)F)c1`, 13.9 µg/mL (≈ 34.3 µM). As for `CCOC(=O)N1CCc2c(sc(NC(=O)C3COc4ccccc4O3)c2C(N)=O)C1` (stereo not given), the concentration for an effect of 90% (IC90) was 8.19 µg/mL (≈ 19 µM).

In the case of `O=C(Nc1nnc(-c2ccc(Cl)cc2)o1)C1CCCCC1`, the IC90 was 5.6 µg/mL (≈ 18.3 µM).

For the compound `O=C1CC(c2nc3ccccc3n2Cc2ccccc2Cl)CN1c1ccccc1F` (stereo not given), the IC90 is 18.1 µg/mL (≈ 43.2 µM).

On to `CC(C)(C)C(=O)Nc1nnc(-c2ccc3c(c2)CCCC3)o1`, for which the IC90 was 4.73 µg/mL (≈ 15.8 µM).

As to `O=C(c1ccc(NC2=C(Cl)C(=O)N(Cc3ccccc3)C2=O)cc1)N1CCCCC1`, the IC90 is 6.24 µg/mL (≈ 14.7 µM). The value for `NC(=O)c1oc2ccccc2c1NC(=O)C1CC(=O)N(c2ccc(Cl)cc2)C1` (stereo not given) was 3.15 µg/mL (≈ 7.92 µM); that for `CSc1ccc2nc(Nc3nnc(-c4ccc5c(c4)OCCO5)o3)sc2c1` was 15.1 µg/mL (≈ 38 µM); that for `Clc1ccc(Nc2ccc(NCc3ccccc3)nn2)cc1` was 5.5 µg/mL (≈ 17.7 µM). The value for `Cc1cc(C)c2nc(NNC(=O)c3ccccc3F)sc2c1` was 3.08 µg/mL (≈ 9.77 µM); that for `CCOC(=O)COc1ccc2c(C)c(-c3ccc(OC)c(OC)c3)c(=O)oc2c1` was 2.34 µg/mL (≈ 5.87 µM). Regarding `Cc1ccc(C)c(-c2nnc(NC(=O)C3CC3)o2)c1`, the concentration for an effect of 90% (IC90) is 1.46 µg/mL (≈ 5.67 µM). The value for `O=C(Nc1nnc(C2=COCCO2)o1)c1ccc(Cc2ccccc2)cc1` was 28.1 µg/mL (≈ 77.4 µM); that for `CCCC(=O)Nc1nnc(-c2ccccc2)o1` was 22 µg/mL (≈ 95.2 µM); that for `Cc1ccccc1NCCCn1c(C)cn2c3c(=O)[nH]c(=O)n(C)c3nc12` was 15.4 µg/mL (≈ 41.9 µM).

On to `CC(=O)Nc1nnc(-c2cc(C)ccc2C)o1`, for which the IC90 was 20.2 µg/mL (≈ 87.3 µM).

`COc1ccccc1-c1nnc(NC(=O)c2ccc3c(c2)CCCC3)o1`: the IC90 was 8.04 µg/mL (≈ 23 µM). The value for `CCC(=O)Nc1nnc(-c2ccc(C)cc2C)o1` was below 0.2 µg/mL; that for `O=C(CCSc1ccccc1)Nc1nnc(-c2ccc3c(c2)OCCO3)o1` was 16.8 µg/mL (≈ 43.9 µM); that for `COc1cccc(C(=O)NNc2nc3c(C)cccc3s2)c1` was 11.6 µg/mL (≈ 37.1 µM). With `Cc1cc(C)cc(OCCCn2c(CO)nc3ccccc32)c1`, the IC90 is 14 µg/mL (≈ 45 µM). Consider `CCCCOc1ccc(C(=O)N2CC(=O)Nc3ccc(Cl)cc3C2c2ccc(F)cc2)cc1` (stereo not given), for which the concentration for an effect of 90% (IC90) is 13.1 µg/mL (≈ 28.1 µM). For the compound `COc1cccc(Nc2cc(C)nc3c(-c4ccccc4)cnn23)c1`, the concentration for an effect of 90% (IC90) is 1.83 µg/mL (≈ 5.54 µM). The value for `Cc1cc(C)c2nc(N(CCCn3ccnc3)C(=O)c3cccs3)sc2c1` was 1.45 µg/mL (≈ 3.66 µM).

On to `CC1=NC2C=CC(Cl)=CC2C(c2ccccc2)=C1C(=O)/C=C/c1nc2ccccc2[nH]1` (stereo not given), for which the IC90 is 0.73 µg/mL (≈ 1.71 µM). The value for `Cc1c(Cl)ccc2sc(N(CCCn3ccnc3)C(=O)COc3ccccc3)nc12` was 3.05 µg/mL (≈ 6.92 µM). Under `CCN1C(=O)c2cccc3c(NC(=O)c4ccc(Cl)s4)ccc1c23` stands 8.65 µg/mL (≈ 24.2 µM); under `Cc1ccc(-c2nnc(NC(=O)Cc3ccccc3)o2)c(C)c1`, 14.8 µg/mL (≈ 48.1 µM).
